Test system: patients with type 2 diabetes at high vascular risk
Experiment: Cardiovascular and Renal Outcomes Trial: linagliptin 5 mg once daily vs placebo on top of standard of care
Type: in vivo
Details: for 3P-MACE: hazard ratio (95% CI) vs placebo: Cox regression
Protocol: The effect of linagliptin on cardiovascular risk in adult patients with type 2 diabetes mellitus and with increased CV risk evidenced by a history of established macrovascular or renal disease (e.g. as defined herein) was evaluated in a multi-center, multi-national, randomized, double-blind parallel group trial. The trial compared the risk of experiencing a major adverse cardiovascular event (MACE) between linagliptin and placebo when these were added to and used concomitantly with standard of care treatments for diabetes (HbA1c), cardiovascular risk factors and renal disease.
The primary endpoint in this trial was the time to first occurrence of three point (3P) MACE. A major adverse cardiac event was defined as a cardiovascular death or a nonfatal myocardial infarction (MI) or a nonfatal stroke. The statistical analysis plan tested for non-inferiority for the occurrence of (3P) MACE. […] The secondary endpoint was a renal composite, defined as renal death or sustained end stage renal disease or sustained decrease of 40% or more in eGFR.
Type 2 diabetes patient with insufficient glycemic control (naïve or pre-treated with any antidiabetic background medication, excluding treatment with GLP-1 receptor agonists, DPP-4inhibitors or SGLT-2 inhibitors if ≥consecutive 7 days, e.g. having HbA1c 6.5-10%), and high risk of cardiovascular events, e.g. defined by: • albuminuria (micro or macro) and previous macrovascular disease: e.g. defined according to Condition I as indicated below; • and/or • impaired renal function: e.g. as defined according to Condition II as indicated below;
Background and aims: People with type 2 diabetes (T2D) are at increased risk for hospitalization for heart failure (hHF), particularly in the setting of concomitant cardiovascular (CV) and/or kidney disease. […] Here we present analyses of HF outcomes with the DPP-4 inhibitor linagliptin (LINA) vs. placebo (PBO) from a Cardiovascular and Renal Outcomes Trial assessing cardiovascular safety and renal microvascular outcome in patients with type 2 diabetes at high vascular risk, a large CV outcomes trial that enrolled participants with T2D at high risk for hHF due to concomitant CV and/or chronic kidney disease. Materials and methods: People with T2D and concomitant CV and/or kidney disease were randomized to receive LINA 5 mg, or PBO once daily (1:1), on top of standard of care. All hHF, CV outcomes, and deaths were centrally adjudicated, with individual and composite HF-related outcomes analyses comparing LINA vs. placebo. Investigator-reported HF-related adverse events, whether or not confirmed by adjudication, were also analyzed. A Cox proportional hazards model adjusting for region and history of HF was used for analyses of first events. Recurrent hHF events were analyzed using a negative binomial model.
Methods: The present Cardiovascular and Renal Outcomes Trial randomized people with T2D and i) concomitant CV disease with UACR >30 mg/g or ii) prevalent CKD (i.e. GFR <45 ml/min/1.73m2 and/or UACR >200 mg/g) to receive the DPP-4 inhibitor linagliptin (5 mg) or placebo once daily in a double-blind fashion. The primary CV endpoint was 3P-MACE, with a key secondary kidney endpoint (adjudicated ESKD, renal death, or sustained ≥40% decrease in eGFR from baseline) and other renal outcomes (including albuminuria and eGFR slope) also assessed. Subgroups were assessed by baseline kidney function (eGFR ≥/<45 ml/min/1.73m2and eGFR ≥/<30, 45 or 60 ml/min/1.73m2).
Adults with type 2 diabetes, HbA1c 6.5-10.0% inclusive, and high CV risk were eligible for inclusion. […] Macrovascular disease eligibility criteria was based on documented and confirmed history of myocardial infarction, coronary artery disease, stroke, carotid artery disease, or peripheral artery disease. Participants with end-stage kidney disease (ESKD), defined as eGFR <15 or requiring maintenance dialysis, were excluded.

[1] = all patients, listed as Lingagliptin
[2] = all patients, listed as linagliptin
[3] = both, human, in vivo, 5 mg, 1.9 years
[4] = eGFR ≥30 to <45 mL/min/1.73 m^2

## CC#CCn1c(N2CCC[C@@H](N)C2)nc2c1c(=O)n(Cc1nc(C)c3ccccc3n1)c(=O)n2C [Linagliptin, 1-[(4-methyl-quinazolin-2-yl)methyl]-3-methyl-7-(2-butyn-1-yl)-8-(3-(R)-amino-piperidin-1-yl)-xanthine]
All patients
  3P-MACE: rate/100 patient-years: 4.69 per 100 patient-years
  All-cause death: rate per 100 person-years: 4.69 per 100 person-years
  All-cause mortality: incidence rate per 1000 PY: 46.9 per 1000 patient years
  All-cause mortality: number of subjects: 367
  Hospitalization for heart failure: incidence rate/1000 patient-years: 27.7 per 1000 patient years
  Hospitalization for heart failure: number of patients: 209
  Hospitalization for heart failure: rate/100 patient-years: 2.77 per 100 patient-years
  Renal composite (40% eGFR): incidence rate per 1000 PY: 48.9 per 1000 patient years
  Renal composite (40% eGFR): rate/100 patient-years: 4.89 per 100 patient-years
  Renal composite (renal death, sustained ESRD, sustained decrease of 40% or more in eGFR): number of subjects: 327
  Renal death or sustained ESKD: number of patients: 136
  Renal death or sustained ESKD: patients, %: (3.9) %
  Renal death or sustained ESKD: rate/1000 patient-years: 17.8 per 1000 patient years
  Renal death, or sustained ESKD: rate/100 patient-years: 1.78 per 100 patient-years
  Renal death, sustained ESKD, or sustained ≥ doubling of se-creatinine from baseline: n: 219
  Renal death, sustained ESKD, or ≥ doubling of se-creatinine: %: (6.3) %
  Renal death, sustained ESKD, or ≥ doubling of se-creatinine: rate/100 patient-years: 3.21 per 100 patient-years
  3P-MACE: hazard ratio (95% CI) vs placebo: 1.02
[1]
  3P-MACE: hazard ratio (95% CI) vs placebo: 1.02 (0.89. 1.17)
  3P-MACE: subjects with event, %: 12.4%
  Renal composite (40% eGFR): hazard ratio (CI) vs placebo: 1.04 (0.89, 1.22)
  Renal composite (40% eGFR): subjects, %: 9.4%
All patients, n = 3494
  3P-MACE (CV death, non-fatal MI, non-fatal stroke): number of subjects with event: 434
All patients, listed as LINA
  Hospitalization for heart failure: hazard ratio (95% CI) vs placebo: 0.90
  Renal composite (40% eGFR): hazard ratio (CI) vs placebo: 1.04
[2]
  3P-MACE: rate/100 patient-years: 5.77 per 100 patient-years
  3P-MACE: subjects with event, %: 12.4%
  All-cause mortality: hazard ratio (95% CI) vs placebo: 0.98
  All-cause mortality: subjects, %: 10.5%
  Hospitalization for heart failure: hazard ratio (95% CI) vs placebo: 0.90
  Hospitalization for heart failure: patients, %: 6.0%
  Renal composite (40% eGFR): hazard ratio (CI) vs placebo: 1.04
  Renal composite (40% eGFR): subjects, %: 9.4%
  Renal death or sustained ESKD: hazard ratio (95% CI) vs placebo: 0.87
  Renal death or sustained ESKD: patients, %: 3.9%
[3]
  Fatal cases of pancreatitis: %: 0.1%
  Fatal cases of pancreatitis: n: 2
eGFR <30 mL/min/1.73 m^2
  3-point MACE: hazard ratio vs placebo: 0.97
  3-point MACE: patients with event/patients analyzed: 101/516
  Key secondary kidney outcome: hazard ratio vs placebo: 1.05
  Key secondary kidney outcome: patients with event/patients analyzed: 133/516
eGFR < 45 (n = 3000)
  3P-MACE: %: (16.6) %
  3P-MACE: HR (95% CI) vs placebo: 1.02 (0.85, 1.21)
  3P-MACE: n: 250
  3P-MACE: rate/100 patient-years: 7.61 per 100 patient-years
  Hospitalized heart failure: %: (8.9) %
  Hospitalized heart failure: HR (95% CI) vs placebo: 0.87 (0.69, 1.10)
  Hospitalized heart failure: n: 135
  Hospitalized heart failure: rate/100 patient-years: 4.13 per 100 patient-years
  Key secondary kidney endpoint: %: (14.7) %
  Key secondary kidney endpoint: HR (95% CI) vs placebo: 0.97 (0.80, 1.17)
  Key secondary kidney endpoint: n: 222
  Key secondary kidney endpoint: rate/100 patient-years: 7.83 per 100 patient-years
  Renal death, or sustained ESKD: %: (8.2) %
  Renal death, or sustained ESKD: HR (95% CI) vs placebo: 0.82 (0.64, 1.04)
  Renal death, or sustained ESKD: n: 124
  Renal death, or sustained ESKD: rate/100 patient-years: 3.78 per 100 patient-years
  Renal death, sustained ESKD, or ≥ doubling of se-creatinine: %: (10.9) %
  Renal death, sustained ESKD, or ≥ doubling of se-creatinine: HR (95% CI) vs placebo: 0.87 (0.70, 1.07)
  Renal death, sustained ESKD, or ≥ doubling of se-creatinine: n: 165
  Renal death, sustained ESKD, or ≥ doubling of se-creatinine: rate/100 patient-years: 5.69 per 100 patient-years
eGFR decrease 50%
  Risk of composite microvascular outcome 1 vs placebo, in words: significantly reduced
eGFR decrease of 40% and 30%
  Risk of composite microvascular outcome 2 and 3 vs placebo, in words: also significantly reduced
[4]
  3-point MACE: hazard ratio vs placebo: 1.07
  3-point MACE: patients with event/patients analyzed: 149/994
  Key secondary kidney outcome: hazard ratio vs placebo: 0.95
  Key secondary kidney outcome: patients with event/patients analyzed: 89/994
eGFR ≥ 45 (n = 3979)
  3P-MACE: %: (9.3) %
  3P-MACE: HR (95% CI) vs placebo: 1.03 (0.84, 1.26)
  3P-MACE: n: 184
  3P-MACE: rate/100 patient-years: 4.34 per 100 patient-years
  Hospitalized heart failure: %: (3.7) %
  Hospitalized heart failure: HR (95% CI) vs placebo: 0.97 (0.70, 1.34)
  Hospitalized heart failure: n: 74
  Hospitalized heart failure: rate/100 patient-years: 1.73 per 100 patient-years
  Key secondary kidney endpoint: %: (5.3) %
  Key secondary kidney endpoint: HR (95% CI) vs placebo: 1.19 (0.89, 1.58)
  Key secondary kidney endpoint: n: 105
  Key secondary kidney endpoint: rate/100 patient-years: 2.72 per 100 patient-years
  Renal death, or sustained ESKD: %: (0.6) %
  Renal death, or sustained ESKD: HR (95% CI) vs placebo: 1.50 (0.61, 3.67)
  Renal death, or sustained ESKD: n: 12
  Renal death, or sustained ESKD: rate/100 patient-years: 0.28 per 100 patient-years
  Renal death, sustained ESKD, or ≥ doubling of se-creatinine: %: (2.7) %
  Renal death, sustained ESKD, or ≥ doubling of se-creatinine: HR (95% CI) vs placebo: 1.08 (0.73, 1.59)
